Assay results taken from the Bradley open melting point set (2014).

Work on `C=Cc1cccc(C)c1` [3-methylstyrene] yielded a melting point of -82 °C. `CCCCCCSc1nc[nH]n1` [3-n-hexylthio-1,2,4-triazole] gave a melting point of 67 °C. For `Cc1cccc([N+](=O)[O-])c1C` [3-nitro-1,2-dimethylbenzene], the melting point was 9 °C. Work on `Nc1ccc(/C=C/c2ccc([N+](=O)[O-])cc2)c([N+](=O)[O-])c1` [3-nitro-4-[(E)-2-(4-nitrophenyl)ethenyl]aniline] yielded a melting point of 202 °C. In the case of `Cc1cccc([N+](=O)[O-])c1C` [3-nitro-o-xylene], the melting point is reported as 14 °C. With `O=[N+]([O-])c1cccc(S(=O)(=O)Cl)c1` [3-nitrobenzenesulfonyl chloride] the melting point was 61 °C. `O=C(O)c1cccc([N+](=O)[O-])c1` [3-nitrobenzoic acid] gave a melting point of 142 °C. `O=[N+]([O-])c1cccc(CO)c1` [3-nitrobenzyl_alcohol] gave a melting point of 32 °C. Compound `O=[N+]([O-])c1cccc(O)c1` [3-nitrophenol] has a melting point of 97 °C. `O=C1NC(=O)c2c1cccc2[N+](=O)[O-]` [3-nitrophthalimide] showed a melting point of 219 °C. `CCC#CCCCC` [3-octyne] showed a melting point of -104 °C. With `CC(CCC(=O)O)C1CCC2C3CCC4CC(=O)CCC4(C)C3CCC12C` (stereo not given) [3-oxocholan-24-oic acid] the melting point was 140 °C. `CC(=O)OC1CC2C(CCC3(C)C(C(C)CCCC(C)C)CCC23)C2(C)CCC(=O)C=C12` (stereo not given) [3-oxocholest-4-en-6-yl acetate] gave a melting point of 102 °C. With `O=C1CC(C(=O)O)c2ccccc21` (stereo not given) [3-oxoindane-1-carboxylic acid] the melting point was 116 °C. In the case of `CCC(=O)CC` [3-pentanone], the melting point is reported as -39 °C. In the case of `OCC(O)COc1ccccc1` (stereo not given) [3-phenoxy-1,2-propanediol], the melting point is reported as 58 °C. For `O=C1C=C(c2ccccc2)c2ccccc21` [3-phenyl-1H-inden-1-one], the melting point was 51 °C. `N#CC1(C#N)C=C(c2ccccc2)c2ccccc21` [3-phenyl-1H-indene-1,1-dicarbonitrile] showed a melting point of 135 °C. With `O=CCCc1ccccc1` [3-phenylpropionaldehyde] the melting point was -42 °C. Compound `O=C(O)CCc1ccccc1` [3-phenylpropionic acid] has a melting point of 49 °C. `O=C(O)CCP(=O)(O)O` [3-phosphonopropionic acid] showed a melting point of 164 °C. `CN1N=C(C(C)(C)C)CC1=O` [3-tert-butyl-1-methyl-2-pyrazolin-5-one] gave a melting point of 149 °C. `CCCCCCCCC(=O)CC` [3-undecanone] showed a melting point of 13 °C. Work on `C=Cc1cccc(B(O)O)c1` [3-vinylbenzeneboronic acid] yielded a melting point of 128 °C. For `CC(=O)C(=Cc1ccc(-c2ccccc2[N+](=O)[O-])o1)C(C)=O` [3-{[5-(2-nitrophenyl)-2-furyl]methylene}pentane-2,4-dione], the melting point was 128 °C. Compound `CC(=O)c1ccc(N2CCNCC2)cc1` [4'-(1-piperazinyl)acetophenone] has a melting point of 96 °C. `CC(=O)Nc1ccc(C(C)=O)cc1Br` [4'-acetamido-3'-bromoacetophenone] showed a melting point of 140 °C. Work on `CC(=O)Nc1c(Br)cc(N)cc1Br` [4'-amino-2',6'-dibromoacetanilide] yielded a melting point of 248 °C. `CCc1cc(Br)ccc1NC(C)=O` [4'-bromo-2'-ethylacetanilide] showed a melting point of 143 °C. With `CC(=O)Nc1ccc(Br)c(C(F)(F)F)c1` [4'-bromo-3'-(trifluoromethyl)acetanilide] the melting point was 118 °C. `CC(=O)Nc1ccc(Br)c(Cl)c1` [4'-bromo-3'-chloroacetanilide] showed a melting point of 124 °C. Work on `CC(=O)c1ccc(Br)cc1` [4'-bromoacetophenone] yielded a melting point of 51 °C. `CC(=O)Nc1ccc(Cl)cc1F` [4'-chloro-2'-fluoroacetanilide] gave a melting point of 156 °C. Work on `CC(=O)c1ccc(Cl)cc1O` [4'-chloro-2'-hydroxyacetophenone] yielded a melting point of 29 °C. With `CC(=O)c1ccc(F)cc1O` [4'-fluoro-2'-hydroxyacetophenone] the melting point was 32 °C. Compound `COc1ccc(C(C)=O)cc1` [4'-methoxyacetophenone] has a melting point of 38 °C. Compound `COc1ccc(-c2ccc(S(=O)(=O)Cl)cc2)cc1` [4'-methoxybiphenyl-4-sulfonyl chloride] has a melting point of 103 °C. For `CC(=O)c1ccc(C)cc1` [4'-methylacetophenone], the melting point was -19 °C. In the case of `CCCc1ccc(-c2ccc(C(=O)O)cc2)cc1` [4'-n-propylbiphenyl-4-carboxylic acid], the melting point is reported as 226 °C. With `CC(=O)Nc1ccc([N+](=O)[O-])cc1` [4'-nitroacetanilide] the melting point was 216 °C. For `Clc1ccc(C(c2ccc(Cl)cc2)C(Cl)(Cl)Cl)cc1` [4,4'-DDT], the melting point was 110 °C. Work on `CC(O)CCc1ccc(CCC(C)O)cc1` (stereo not given) [4,4'-benzene-1,4-diyldibutan-2-ol] yielded a melting point of 44 °C. Work on `Nc1ccc(S(=O)(=O)c2ccc(N)cc2)cc1` [4,4'-diaminodiphenyl sulfone] yielded a melting point of 177 °C. `Fc1ccc(-c2ccc(F)cc2)cc1` [4,4'-difluorobiphenyl] showed a melting point of 88 °C. `Cc1ccc(Cc2ccc(C)cc2)cc1` [4,4'-dimethyldiphenylmethane] showed a melting point of 29 °C. With `CC(CCC(=O)O)(c1ccc(O)cc1)c1ccc(O)cc1` [4,4-bis(4-hydroxyphenyl)valeric acid] the melting point was 173 °C. `C#CC1(O)CCC2C3CCC4C(C)(C)CCCC4(C)C3CCC21C` (stereo not given) [4,4-dimethylpregn-20-yn-17-ol] showed a melting point of 157 °C. `Cc1ccc(C)c2c1C(=O)NC2=O` [4,7-dimethyl-1H-isoindole-1,3(2H)-dione] gave a melting point of 224 °C. Work on `O=Cc1ccc(N2CCCC2)cc1` [4-(1-pyrrolidinyl)benzaldehyde] yielded a melting point of 84 °C. For `OC1(c2ccc(Cl)cc2)CCNCC1` [4-(4-chlorophenyl)-4-hydroxypiperidine], the melting point was 139 °C. Work on `CN(C)c1ccc(C=O)cc1` [4-(Dimethylamino)benzaldehyde] yielded a melting point of 74 °C. For `N#Cc1ccc(Oc2ccnc3ccccc23)cc1C#N` [4-(Quinolin-4-yloxy)phthalonitrile], the melting point was 175 °C. In the case of `OB(O)c1ccc(CBr)cc1` [4-(bromomethyl)benzeneboronic acid], the melting point is reported as 148 °C. For `O=C(CCl)N1CCOCC1` [4-(chloroacetyl)morpholine], the melting point was 29 °C. With `Cc1c(N(C)C)c(=O)n(-c2ccccc2)n1C` [4-(dimethylamino)antipyrine] the melting point was 107 °C. With `CCOC(=O)c1ccc(B(O)O)cc1` [4-(ethoxycarbonyl)benzeneboronic acid] the melting point was 139 °C. Compound `CCOC(=O)c1ccc(N=C=S)cc1` [4-(ethoxycarbonyl)phenyl isothiocyanate] has a melting point of 54 °C. With `CCS(=O)(=O)c1ccc(B(O)O)cc1` [4-(ethylsulfonyl)benzeneboronic acid] the melting point was 137 °C. Work on `CCSc1ccc(B(O)O)cc1` [4-(ethylthio)benzeneboronic acid] yielded a melting point of 105 °C. Compound `OCc1ccc(B(O)O)cc1` [4-(hydroxymethyl)benzeneboronic acid] has a melting point of 280 °C. Work on `CS(=O)c1ccc(B(O)O)cc1` (stereo not given) [4-(methylsulfinyl)benzeneboronic acid] yielded a melting point of 170 °C. Compound `CS(=O)(=O)c1ccc(C(=O)O)cc1` [4-(methylsulfonyl)benzoic acid] has a melting point of 273 °C. In the case of `CSc1ccc(CC(=O)O)cc1` [4-(methylthio)phenylacetic acid], the melting point is reported as 100 °C. Compound `O=S(=O)(Cl)c1cc(S(=O)(=O)c2ccccc2)cs1` [4-(phenylsulfonyl)thiophene-2-sulfonyl chloride] has a melting point of 102 °C. For `O=C(O)c1ccc(C(=O)C(F)(F)F)cc1` [4-(trifluoroacetyl)benzoic acid], the melting point was 178 °C. For `C=CCc1ccc(O)c(OC)c1` [4-Allyl-2-methoxyphenol], the melting point was -9 °C. Work on `Nc1ccc(S(=O)(=O)Nc2nccs2)cc1` [4-Amino-N-(1,3-thiazol-2-yl)benzenesulfonamide] yielded a melting point of 202 °C. With `Nc1ccc(S(=O)(=O)Nc2ccccn2)cc1` [4-Amino-N-(pyridin-2-yl)benzenesulfonamide] the melting point was 192 °C. Work on `Nc1ccc(Br)cc1` [4-Bromoaniline] yielded a melting point of 66 °C. Work on `Cc1cc(O)cc(C)c1Cl` [4-Chloro-3,5-dimethylphenol] yielded a melting point of 115 °C. `CCOc1ccc(N)cc1` [4-Ethoxyaniline] gave a melting point of 3 °C. Compound `CCN1CCOCC1` [4-Ethylmorpholine] has a melting point of -63 °C. `Oc1ccc(F)cc1` [4-Fluorophenol] showed a melting point of 45.5 °C. Compound `O=C(O)c1ccc(O)cc1` [4-Hydroxybenzoic acid] has a melting point of 216 °C. Compound `N#Cc1ccc(O)cc1` [4-Hydroxybenzonitrile] has a melting point of 112 °C. With `CC(C)Oc1ccc(Nc2ccccc2)cc1` [4-Isopropoxy-N-phenylaniline] the melting point was 79 °C. Work on `CC1COC(=O)O1` (stereo not given) [4-Methyl-1,3-dioxolan-2-one] yielded a melting point of -55 °C. In the case of `Cc1ccc(C(=O)O)cc1` [4-Methylbenzoic acid] [listing 1 of 2 here], the melting point is reported as 181 °C. Work on `Cc1ccc(C(=O)O)cc1` [4-Methylbenzoic acid] [listing 2 of 2 here] yielded a melting point of 180 °C. `Cc1ccc(C#N)cc1` [4-Methylbenzonitrile] gave a melting point of 29 °C. `Cc1ccn[nH]c1=O` [4-Methylpyridazin-3(2H)-one] gave a melting point of 154 °C. `NC(=O)c1ccc([N+](=O)[O-])cc1` [4-Nitrobenzamide] showed a melting point of 202 °C. Compound `O=C(O)c1ccc([N+](=O)[O-])cc1` [4-Nitrobenzoic acid] has a melting point of 240 °C. In the case of `O=C(Cl)c1ccc([N+](=O)[O-])cc1` [4-Nitrobenzoyl chloride], the melting point is reported as 75 °C. Compound `Nc1ccc(C=C/C(=N/O)c2ccccc2)cc1` [4-[(3Z)-3-(hydroxyimino)-3-phenylprop-1-en-1-yl]aniline] has a melting point of 139 °C. Work on `CC(=O)Nc1ccc(C=O)cc1` [4-acetamidobenzaldehyde] yielded a melting point of 160 °C. `CC(=O)Nc1ccc(O)cc1` [4-acetamidophenol] gave a melting point of 169 °C. For `CC(=O)Oc1ccc(C(=O)O)cc1` [4-acetoxybenzoic acid], the melting point was 194 °C. Compound `CC(=O)Oc1ccc(C(=O)O)cc1` [4-acetoxybenzoic_acid] has a melting point of 194 °C. `CC(=O)Oc1ccc(-c2ccccc2)cc1` [4-acetoxybiphenyl] gave a melting point of 88 °C. Work on `Nn1cnnc1` [4-amino-1,2,4-triazole] yielded a melting point of 86 °C. `Nc1ccc(O)c([N+](=O)[O-])c1` [4-amino-2-nitrophenol] gave a melting point of 129 °C. In the case of `Cc1c(N)c(=O)n(-c2ccccc2)n1C` [4-aminoantipyrine], the melting point is reported as 108 °C. With `NNC(=O)c1ccc(N)cc1` [4-aminobenzhydrazide] the melting point was 228 °C. Work on `Nc1ccc(C(=O)O)cc1` [4-aminobenzoic acid] yielded a melting point of 188 °C.
